The compounds below were run on mutant Huntington (HTT) protein (assay: HTT Mutant HTRF iPSC assay (mHTT protein lowering)). Settings: human iPSC derived from a HTT patient with a poly-Q49 mutation.
Assay type: cell-based
For COc1cc(-c2cc(C)c3nc(C)cn3n2)cn2cc([C@H]3[C@@H]4CN(C)C[C@@H]43)nc12 [Compound 539, 6-[8-methoxy-2-[(1S,5R)-3-methyl-3-azabicyclo[3.1.0]hexan-6-yl]imidazo[1,2-a]pyridin-6-yl]-2,8-dimethyl-imidazo[1,2-b]pyridazine], the IC50 was < 100 nM. In the case of Cc1cn2nc(-c3cc(F)c4nc(NC(=O)[C@@H]5CN[C@H]5C)cn4c3)cc(C)c2n1 (stereo in doubt) [Compound 287, rel-(2R,3S)-N-(6-(2,8-dimethylimidazo[1,2-b]pyridazin-6-yl)-8-fluoroimidazo[1,2-a]pyridin-2-yl)-2-methylazetidine-3-carboxamide], the IC50 is reported as < 100 nM. Compound Cc1cn2nc(-c3cc(F)c4nn(C5CCC6(CCNC6)C5)nc4c3)cc(C)c2n1 (stereo not shown) [Compound 396, 6-(2,8-dimethylimidazo[1,2-b]pyridazin-6-yl)-4-fluoro-2-(2-azaspiro[4.4]nonan-7-yl)-2H-benzo[d][1,2,3]triazole] has an IC50 of 100 to 1000 nM. With Cc1cn2nc(-c3cc(F)c4nn(C5CCNCC5)nc4c3)cc(C(F)F)c2n1 [Compound 374, 6-[8-(difluoromethyl)-2-methyl-imidazo[1,2-b]pyridazin-6-yl]-4-fluoro-2-(4-piperidyl)benzotriazole] the IC50 was < 100 nM. For Cc1cc2nc(-c3cc(F)c4nc(C5CCNCC5)cn4c3)ccn2n1 [Compound 200, 5-(8-fluoro-2-(piperidin-4-yl)imidazo[1,2-a]pyridin-6-yl)-2-methylpyrazolo[1,5-a]pyrimidine], the IC50 was < 100 nM. In the case of Cc1cn2nc(-c3cc(F)c4nc(NC(=O)C5CCCN(C)C5)cn4c3)cc(C)c2n1 (single isomer, unassigned) [Compound 277], the IC50 is reported as < 100 nM. For CCc1nc(C)cn2cc(-c3cc(F)c4nc(C5CCN(C6CC6)CC5)cn4c3)cc12 [Compound 172, 2-(1-cyclopropylpiperidin-4-yl)-6-(1-ethyl-3-methylpyrrolo[1,2-a]pyrazin-7-yl)-8-fluoroimidazo[1,2-a]pyridine], the IC50 was 100 to 1000 nM. Cc1cn2nc(-c3cc(F)c4nn(C5CCNCC5)nc4c3)cc(C)c2n1 [Compound 139, 6-(2,8-dimethylimidazo[1,2-b]pyridazin-6-yl)-4-fluoro-2-(piperidin-4-yl)-2H-benzo[d][1,2,3]triazole] was tested, and the IC50 was < 100 nM. Cc1cn2nc(-c3cc(F)c4nc(C5CCNCC5)cn4c3)cc(C(F)F)c2n1 [Compound 153, 8-(difluoromethyl)-6-(8-fluoro-2-(piperidin-4-yl)imidazo[1,2-a]pyridin-6-yl)-2-methylimidazo[1,2-b]pyridazine] was tested, and the IC50 was < 100 nM. With Cc1cn2nc(-c3cc(F)c4nc(C5CCN(C6CC6)CC5)cn4c3)cc(C(F)F)c2n1 [Compound 167, 6-(2-(1-cyclopropylpiperidin-4-yl)-8-fluoroimidazo[1,2-a]pyridin-6-yl)-8-(difluoromethyl)-2-methylimidazo[1,2-b]pyridazine] the IC50 was < 100 nM. Work on Cc1cn2nc(-c3cc(F)c4nc(CC5CCN(C)CC5)nn4c3)cc(C)c2n1 [Compound 448, 6-(2,8-dimethylimidazo[1,2-b]pyridazin-6-yl)-8-fluoro-2-((1-methylpiperidin-4-yl)methyl)-[1,2,4]triazolo[1,5-a]pyridine] yielded an IC50 of 100 to 1000 nM. Compound Cc1cn2cc(-c3cc(F)c4nc(C5CCN(C)CC5)cn4c3)ccc2n1 [Compound 10, 8-fluoro-2′-methyl-2-(1-methylpiperidin-4-yl)-6,6′-biimidazo[1,2-a]pyridine] has an IC50 of 1000 to 9000 nM. Cc1cn2nc(-c3cc(F)c4nc(NC(=O)C5CN(CC(F)F)C5)cn4c3)cc(C)c2n1 [Compound 267, 1-(2,2-difluoroethyl)-N-(6-(2,8-dimethylimidazo[1,2-b]pyridazin-6-yl)-8-fluoroimidazo[1,2-a]pyridin-2-yl)azetidine-3-carboxamide] gave an IC50 of 100 to 1000 nM. Cc1cn2nc(-c3cc(F)c4nc(CC5CCNCC5)cn4c3)cc(C)c2n1 [Compound 238, 6-(8-fluoro-2-(piperidin-4-ylmethyl)imidazo[1,2-a]pyridin-6-yl)-2,8-dimethylimidazo[1,2-b]pyridazine] was tested, and the IC50 was < 100 nM. For COCCN1CCC(c2nc3c(F)cc(-c4cc(C)c5nc(C)cn5n4)cn3n2)CC1 [Compound 439, 6-(2,8-dimethylimidazo[1,2-b]pyridazin-6-yl)-8-fluoro-2-[1-(2-methoxyethyl)-4-piperidyl]-[1,2,4]triazolo[1,5-a]pyridine], the IC50 was 100 to 1000 nM. For Cc1cn2nc(-c3cc(F)c4[nH]c(C5CC6CC(N)C6C5)nc4c3)cc(C)c2n1 (stereo not shown) [Compound 423, 3-(5-(2,8-dimethylimidazo[1,2-b]pyridazin-6-yl)-7-fluoro-1H-benzo[d]imidazol-2-yl)bicyclo[3.2.0]heptan-6-amine], the IC50 was 100 to 1000 nM. Cc1cn2nc(-c3cc(F)c4nc(C5CCNCC5)cn4c3)cc(C)c2n1 [Compound 1] was tested, and the IC50 was < 100 nM. With Cc1cn2nc(-c3cc(F)c4nc(NC(=O)C5(C)CN(C6CC6)C5)cn4c3)cc(C)c2n1 [Compound 282, 1-cyclopropyl-N-(6-(2,8-dimethylimidazo[1,2-b]pyridazin-6-yl)-8-fluoroimidazo[1,2-a]pyridin-2-yl)-3-methylazetidine-3-carboxamide] the IC50 was < 100 nM. Cc1cn2nc(-c3cn4cc(C5CCN(C)CC5)cc(F)c4n3)cc(C)c2n1 [Compound 133, 6-[8-fluoro-6-(1-methyl-4-piperidyl)imidazo[1,2-a]pyridin-2-yl]-2,8-dimethyl-imidazo[1,2-b]pyridazine] gave an IC50 of 1000 to 9000 nM. With Cc1cn2nc(-c3cc(F)c4nn(C5CC6CNCC65)nc4c3)cc(C)c2n1 (racemic) [Compound 397, 2-(3-azabicyclo[3.2.0]heptan-6-yl)-6-(2,8-dimethylimidazo[1,2-b]pyridazin-6-yl)-4-fluoro-2H-benzo[d][1,2,3]triazole] the IC50 was 100 to 1000 nM. Cn1cc2cc(-c3cc(F)c4nc(C5CCNCC5)cn4c3)cc(F)c2n1 [Compound 93, 7-fluoro-5-(8-fluoro-2-(piperidin-4-yl)imidazo[1,2-a]pyridin-6-yl)-2-methyl-2H-indazole] was tested, and the IC50 was 100 to 1000 nM. In the case of Cn1cc2cc(-c3cc(F)c4[nH]c(C5CCNCC5)nc4c3)cc(F)c2n1 [Compound 141, 7-fluoro-5-(7-fluoro-2-(piperidin-4-yl)-1H-benzo[d]imidazol-5-yl)-2-methyl-2H-indazole], the IC50 is reported as 1000 to 9000 nM. For Cc1cn2nc(-c3cc(F)c4nn(C5CCNCC5)cc4c3)cc(C(F)F)c2n1 [Compound 350, 8-(difluoromethyl)-6-[7-fluoro-2-(4-piperidyl)indazol-5-yl]-2-methyl-imidazo[1,2-b]pyridazine], the IC50 was < 100 nM. For Cc1cn2nc(-c3cc(F)c4nn(C5CCN(C)CC5)cc4c3)cc(C)c2n1 [Compound 362, 6-(7-fluoro-2-(1-methylpiperidin-4-yl)-2H-indazol-5-yl)-2,8-dimethylimidazo[1,2-b]pyridazine], the IC50 was < 100 nM. In the case of CNCCc1cn2cc(-c3cc(F)c4nn(C)cc4c3)cc(F)c2n1 [Compound 18, 2-(8-fluoro-6-(7-fluoro-2-methyl-2H-indazol-5-yl)imidazo[1,2-a]pyridin-2-yl)-N-methylethan-1-amine], the IC50 is reported as 1000 to 9000 nM. Compound Cn1cc2c(F)cc(-c3cc(F)c4nc(C5CCNCC5)cn4c3)cc2n1 [Compound 86, 4-fluoro-6-(8-fluoro-2-(piperidin-4-yl)imidazo[1,2-a]pyridin-6-yl)-2-methyl-2H-indazole] has an IC50 of 1000 to 9000 nM. Cc1cn2nc(-c3cc(F)c4nc([C@H]5[C@@H]6CN(C7CC(F)(F)C7)C[C@@H]65)cn4c3)cc(C)c2n1 [Compound 218, 6-(2-((1R,5S,6r)-3-(3,3-difluorocyclobutyl)-3-azabicyclo[3.1.0]hexan-6-yl)-8-fluoroimidazo[1,2-a]pyridin-6-yl)-2,8-dimethylimidazo[1,2-b]pyridazine] gave an IC50 of 100 to 1000 nM. Work on Cc1nc2cc(-c3cc(F)c4nc(C5CCNCC5)cn4c3)ccc2[nH]1 [Compound 50, 5-(8-fluoro-2-(piperidin-4-yl)imidazo[1,2-a]pyridin-6-yl)-2-methyl-1H-benzo[d]imidazole] yielded an IC50 of 1000 to 9000 nM. Cc1cn2nc(-c3cc(F)c4nc([C@H]5[C@@H]6CNC[C@@H]65)nn4c3)cc(C)c2n1 [Compound 443, 2-[(1R,5S)-3-azabicyclo[3.1.0]hexan-6-yl]-6-(2,8-dimethylimidazo[1,2-b]pyridazin-6-yl)-8-fluoro-[1,2,4]triazolo[1,5-a]pyridine] was tested, and the IC50 was < 100 nM. In the case of Cc1cn2nc(-c3cc(F)c4nc(C5CCN(CC6CCC6)CC5)nn4c3)cc(C)c2n1 [Compound 444, 2-(1-(cyclobutylmethyl)piperidin-4-yl)-6-(2,8-dimethylimidazo[1,2-b]pyridazin-6-yl)-8-fluoro-[1,2,4]triazolo[1,5-a]pyridine], the IC50 is reported as 100 to 1000 nM. Cc1cn2nc(-c3cc(F)c4nc(C5CCN(C6CCOC6)CC5)cn4c3)cc(C)c2n1 (stereo not shown) [Compound 192, 6-(8-fluoro-2-(1-(tetrahydrofuran-3-yl)piperidin-4-yl)imidazo[1,2-a]pyridin-6-yl)-2,8-dimethylimidazo[1,2-b]pyridazine] was tested, and the IC50 was < 100 nM. Cc1cn2nc(-c3cc(F)c4nc(NC(=O)C5CCNC56CC6)nn4c3)cc(C)c2n1 (stereo not shown) [Compound 323, N-(6-(2,8-dimethylimidazo[1,2-b]pyridazin-6-yl)-8-fluoro-[1,2,4]triazolo[1,5-a]pyridin-2-yl)-4-azaspiro[2.4]heptane-7-carboxamide] was tested, and the IC50 was 100 to 1000 nM. In the case of COc1cc(-c2cc(C)c3nc(C)cn3n2)cn2cc(C3CCNCC3)nc12 [Compound 538, 6-(8-methoxy-2-(piperidin-4-yl)imidazo[1,2-a]pyridin-6-yl)-2,8-dimethylimidazo[1,2-b]pyridazine], the IC50 is reported as < 100 nM. In the case of Cc1cn2nc(-c3cc(F)c4nc(C5CCNCC5)oc4c3)cc(C)c2n1 [Compound 154, 6-(2,8-dimethylimidazo[1,2-b]pyridazin-6-yl)-4-fluoro-2-(4-piperidyl)-1,3-benzoxazole], the IC50 is reported as < 100 nM. For Cc1cn2nc(-c3cc(F)c4nc([C@H]5CCNC6(CC6)C5)cn4c3)cc(C)c2n1 (single isomer, unassigned) [Compound 180], the IC50 was < 100 nM. With Cc1cn2nc(-c3cc(F)c4nc(NC(=O)C5CC6(CNC6)C5)cn4c3)cc(C)c2n1 [Compound 276] the IC50 was 100 to 1000 nM. Cc1cn2nc(-c3cc(F)c4nc(NC5CCN(C6CCC6)CC5)oc4c3)cc(C)c2n1 [Compound 478, N-(1-cyclobutylpiperidin-4-yl)-6-(2,8-dimethylimidazo[1,2-b]pyridazin-6-yl)-4-fluorobenzo[d]oxazol-2-amine] was tested, and the IC50 was < 100 nM.

— patent publication US20250353841A1 (BIOGEN MA INC., priority 2022, published 2025)
